Assay results reported in PubChem BioAssay (NCI).
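96-well plates; 48 h exposure; 5 concentrations. Endpoints by linear interpolation between flanking doses. Not reached: highest tested concentration assigned. GI50 is the concentration that inhibits growth by half. At the TGI there is no net growth.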

What was measured:
Test in all cases: NCI-60 cell line screen, 48 h
NCI-H522 lung = tested on: NCI-H522 lung
NCI-H23 lung = tested on: NCI-H23 lung
SF-295 CNS = tested on: SF-295 CNS
SK-MEL-5 melanoma = tested on: SK-MEL-5 melanoma
786-0 renal = tested on: 786-0 renal
IGROV1 ovarian = tested on: IGROV1 ovarian
UO-31 renal = tested on: UO-31 renal
PC-3 prostate = tested on: PC-3 prostate
CAKI-1 renal = tested on: CAKI-1 renal
HL-60(TB) leukemia = tested on: HL-60(TB) leukemia
HCT-15 colon = tested on: HCT-15 colon
OVCAR-4 ovarian = tested on: OVCAR-4 ovarian
HOP-92 NSCLC = tested on: HOP-92 NSCLC
SK-MEL-28 melanoma = tested on: SK-MEL-28 melanoma
HT29 colon = tested on: HT29 colon
HOP-62 NSCLC = tested on: HOP-62 NSCLC
MDA-MB-231 breast = tested on: MDA-MB-231 breast
K-562 leukemia = tested on: K-562 leukemia
HCC-2998 colon = tested on: HCC-2998 colon
OVCAR-3 ovarian = tested on: OVCAR-3 ovarian
COLO 205 colon = tested on: COLO 205 colon
SK-MEL-2 melanoma = tested on: SK-MEL-2 melanoma
MDA-MB-435 = tested on: MDA-MB-435
UACC-62 melanoma = tested on: UACC-62 melanoma
SK-OV-3 ovarian = tested on: SK-OV-3 ovarian
NCI/ADR-RES ovarian = tested on: NCI/ADR-RES ovarian
SF-539 CNS = tested on: SF-539 CNS
DU-145 prostate = tested on: DU-145 prostate
NCI-H460 lung = tested on: NCI-H460 lung
NCI-H226 lung = tested on: NCI-H226 lung
ACHN renal = tested on: ACHN renal
SNB-75 CNS = tested on: SNB-75 CNS
MALME-3M melanoma = tested on: MALME-3M melanoma
LOX IMVI melanoma = tested on: LOX IMVI melanoma
SNB-19 CNS = tested on: SNB-19 CNS
A549 NSCLC = tested on: A549 NSCLC
T-47D breast = tested on: T-47D breast
RXF 393 renal = tested on: RXF 393 renal
UACC-257 melanoma = tested on: UACC-257 melanoma
RPMI-8226 leukemia = tested on: RPMI-8226 leukemia
SF-268 CNS = tested on: SF-268 CNS
SR leukemia = tested on: SR leukemia
OVCAR-8 ovarian = tested on: OVCAR-8 ovarian
U251 CNS = tested on: U251 CNS
HS 578T breast = tested on: HS 578T breast
TK-10 renal = tested on: TK-10 renal
SW-620 colon = tested on: SW-620 colon
CCRF-CEM leukemia = tested on: CCRF-CEM leukemia
MOLT-4 leukemia = tested on: MOLT-4 leukemia
M14 melanoma = tested on: M14 melanoma
KM12 colon = tested on: KM12 colon
A498 renal = tested on: A498 renal
BT-549 breast = tested on: BT-549 breast
HCT-116 colon = tested on: HCT-116 colon
MCF7 breast = tested on: MCF7 breast
SN12C renal = tested on: SN12C renal
OVCAR-5 ovarian = tested on: OVCAR-5 ovarian

With `CC(C)CNc1nc(N=[N+]=[N-])nc(NCC(C)C)n1` the GI50 (NCI-H522 lung) was > 10 µM, the TGI (NCI-H522 lung) was > 10 µM and the GI50 (NCI-H23 lung) was > 10 µM. The TGI (NCI-H23 lung) was > 10 µM, the GI50 (SF-295 CNS) was > 10 µM and the TGI (SF-295 CNS) was > 10 µM. The GI50 (SK-MEL-5 melanoma) was > 10 µM, the TGI (SK-MEL-5 melanoma) was > 10 µM and the GI50 (786-0 renal) was > 10 µM. For the same molecule, the TGI (786-0 renal) was > 10 µM, the GI50 (IGROV1 ovarian) was > 10 µM and the TGI (IGROV1 ovarian) was > 10 µM. The GI50 (UO-31 renal) was > 10 µM, the TGI (UO-31 renal) was > 10 µM and the GI50 (PC-3 prostate) was > 10 µM. The TGI (PC-3 prostate) was > 10 µM, the GI50 (CAKI-1 renal) was > 10 µM and the TGI (CAKI-1 renal) was > 10 µM. For the same molecule, the GI50 (HL-60(TB) leukemia) was > 10 µM, the TGI (HL-60(TB) leukemia) was > 10 µM and the GI50 (HCT-15 colon) was > 10 µM. For the same molecule, the TGI (HCT-15 colon) was > 10 µM, the GI50 (OVCAR-4 ovarian) was > 10 µM and the TGI (OVCAR-4 ovarian) was > 10 µM. The GI50 (HOP-92 NSCLC) was 7.89 µM, the TGI (HOP-92 NSCLC) was > 10 µM and the GI50 (SK-MEL-28 melanoma) was > 10 µM. The TGI (SK-MEL-28 melanoma) was > 10 µM, the GI50 (HT29 colon) was > 10 µM and the TGI (HT29 colon) was > 10 µM. The GI50 (HOP-62 NSCLC) was > 10 µM, the TGI (HOP-62 NSCLC) was > 10 µM and the GI50 (MDA-MB-231 breast) was > 10 µM. The TGI (MDA-MB-231 breast) was > 10 µM, the GI50 (K-562 leukemia) was > 10 µM and the TGI (K-562 leukemia) was > 10 µM. For the same molecule, the GI50 (HCC-2998 colon) was > 10 µM, the TGI (HCC-2998 colon) was > 10 µM and the GI50 (OVCAR-3 ovarian) was > 10 µM. For the same molecule, the TGI (OVCAR-3 ovarian) was > 10 µM, the GI50 (COLO 205 colon) was > 10 µM and the TGI (COLO 205 colon) was > 10 µM. For the same molecule, the GI50 (SK-MEL-2 melanoma) was > 10 µM, the TGI (SK-MEL-2 melanoma) was > 10 µM and the GI50 (MDA-MB-435) was > 10 µM. The TGI (MDA-MB-435) was > 10 µM, the GI50 (UACC-62 melanoma) was > 10 µM and the TGI (UACC-62 melanoma) was > 10 µM. The GI50 (SK-OV-3 ovarian) was > 10 µM, the TGI (SK-OV-3 ovarian) was > 10 µM and the GI50 (NCI/ADR-RES ovarian) was > 10 µM. The TGI (NCI/ADR-RES ovarian) was > 10 µM, the GI50 (SF-539 CNS) was > 10 µM and the TGI (SF-539 CNS) was > 10 µM. The GI50 (DU-145 prostate) was > 10 µM, the TGI (DU-145 prostate) was > 10 µM and the GI50 (NCI-H460 lung) was > 10 µM. For the same molecule, the TGI (NCI-H460 lung) was > 10 µM, the GI50 (NCI-H226 lung) was > 10 µM and the TGI (NCI-H226 lung) was > 10 µM. For the same molecule, the GI50 (ACHN renal) was > 10 µM, the TGI (ACHN renal) was > 10 µM and the GI50 (SNB-75 CNS) was > 10 µM. The TGI (SNB-75 CNS) was > 10 µM, the GI50 (MALME-3M melanoma) was > 10 µM and the TGI (MALME-3M melanoma) was > 10 µM. The GI50 (LOX IMVI melanoma) was > 10 µM, the TGI (LOX IMVI melanoma) was > 10 µM and the GI50 (SNB-19 CNS) was > 10 µM. The TGI (SNB-19 CNS) was > 10 µM, the GI50 (A549 NSCLC) was > 10 µM and the TGI (A549 NSCLC) was > 10 µM. For the same molecule, the GI50 (T-47D breast) was > 10 µM, the TGI (T-47D breast) was > 10 µM and the GI50 (RXF 393 renal) was > 10 µM. For the same molecule, the TGI (RXF 393 renal) was > 10 µM, the GI50 (UACC-257 melanoma) was > 10 µM and the TGI (UACC-257 melanoma) was > 10 µM. The GI50 (RPMI-8226 leukemia) was > 10 µM, the TGI (RPMI-8226 leukemia) was > 10 µM and the GI50 (SF-268 CNS) was > 10 µM. For the same molecule, the TGI (SF-268 CNS) was > 10 µM, the GI50 (SR leukemia) was > 10 µM and the TGI (SR leukemia) was > 10 µM. The GI50 (OVCAR-8 ovarian) was > 10 µM, the TGI (OVCAR-8 ovarian) was > 10 µM and the GI50 (U251 CNS) was > 10 µM. The TGI (U251 CNS) was > 10 µM, the GI50 (HS 578T breast) was > 10 µM and the TGI (HS 578T breast) was > 10 µM. The GI50 (TK-10 renal) was > 10 µM, the TGI (TK-10 renal) was > 10 µM and the GI50 (SW-620 colon) was > 10 µM. The TGI (SW-620 colon) was > 10 µM, the GI50 (CCRF-CEM leukemia) was > 10 µM and the TGI (CCRF-CEM leukemia) was > 10 µM. The GI50 (MOLT-4 leukemia) was > 10 µM, the TGI (MOLT-4 leukemia) was > 10 µM and the GI50 (M14 melanoma) was > 10 µM. For the same molecule, the TGI (M14 melanoma) was > 10 µM, the GI50 (KM12 colon) was > 10 µM and the TGI (KM12 colon) was > 10 µM. The GI50 (A498 renal) was > 10 µM, the TGI (A498 renal) was > 10 µM and the GI50 (BT-549 breast) was > 10 µM. For the same molecule, the TGI (BT-549 breast) was > 10 µM, the GI50 (HCT-116 colon) was > 10 µM and the TGI (HCT-116 colon) was > 10 µM. The GI50 (MCF7 breast) was > 10 µM, the TGI (MCF7 breast) was > 10 µM and the GI50 (SN12C renal) was > 10 µM. The TGI (SN12C renal) was > 10 µM, the GI50 (OVCAR-5 ovarian) was > 10 µM and the TGI (OVCAR-5 ovarian) was > 10 µM.
